Source: PubChem BioAssay (NCI)
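Tested at 5 concentrations; 48 h exposure; 96-well plates; endpoints linearly interpolated, else capped at highest concentration. TGI: total growth inhibition.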

Legend:
Test in all cases: DTP human tumour cell line panel, 48 h
HCC-2998 colon = system: HCC-2998 colon
SR leukemia = system: SR leukemia
SN12C renal = system: SN12C renal
RPMI-8226 leukemia = system: RPMI-8226 leukemia
KM20L2 colon = system: KM20L2 colon
SK-MEL-2 melanoma = system: SK-MEL-2 melanoma
HOP-18 NSCLC = system: HOP-18 NSCLC
M19-MEL melanoma = system: M19-MEL melanoma
U251 CNS = system: U251 CNS
LOX IMVI melanoma = system: LOX IMVI melanoma
SNB-75 CNS = system: SNB-75 CNS
SW-620 colon = system: SW-620 colon
A549 NSCLC = system: A549 NSCLC
COLO 205 colon = system: COLO 205 colon
SK-MEL-28 melanoma = system: SK-MEL-28 melanoma
UO-31 renal = system: UO-31 renal
NCI-H460 lung = system: NCI-H460 lung
SF-539 CNS = system: SF-539 CNS
NCI-H23 lung = system: NCI-H23 lung
786-0 renal = system: 786-0 renal
OVCAR-8 ovarian = system: OVCAR-8 ovarian
HT29 colon = system: HT29 colon
HL-60(TB) leukemia = system: HL-60(TB) leukemia
RXF-631 renal = system: RXF-631 renal
MOLT-4 leukemia = system: MOLT-4 leukemia
MALME-3M melanoma = system: MALME-3M melanoma
UACC-257 melanoma = system: UACC-257 melanoma
DMS 114 small cell lung = system: DMS 114 small cell lung
UACC-62 melanoma = system: UACC-62 melanoma
NCI-H226 lung = system: NCI-H226 lung
A498 renal = system: A498 renal
ACHN renal = system: ACHN renal
CAKI-1 renal = system: CAKI-1 renal
SF-295 CNS = system: SF-295 CNS
HCT-15 colon = system: HCT-15 colon
SF-268 CNS = system: SF-268 CNS
OVCAR-5 ovarian = system: OVCAR-5 ovarian
OVCAR-3 ovarian = system: OVCAR-3 ovarian
OVCAR-4 ovarian = system: OVCAR-4 ovarian
SNB-19 CNS = system: SNB-19 CNS
KM12 colon = system: KM12 colon
M14 melanoma = system: M14 melanoma
HOP-92 NSCLC = system: HOP-92 NSCLC
LXFL 529 NSCLC = system: LXFL 529 NSCLC
IGROV1 ovarian = system: IGROV1 ovarian
CCRF-CEM leukemia = system: CCRF-CEM leukemia
HCT-116 colon = system: HCT-116 colon
RXF 393 renal = system: RXF 393 renal
XF 498 CNS = system: XF 498 CNS
DMS 273 small cell lung = system: DMS 273 small cell lung
K-562 leukemia = system: K-562 leukemia
HOP-62 NSCLC = system: HOP-62 NSCLC
TK-10 renal = system: TK-10 renal
EKVX NSCLC = system: EKVX NSCLC
NCI-H522 lung = system: NCI-H522 lung
DLD-1 colon = system: DLD-1 colon

Molecule `COc1cc2c(cc1O)[C@H](Cc1ccc(Oc3cc(C[C@H]4c5cc(OC)c(OC)cc5CCN4C)ccc3OC)cc1)NCC2` has a TGI (HCC-2998 colon) of 18.7 µM, a TGI (SR leukemia) of 30.1 µM and a TGI (SN12C renal) of 31.1 µM. It also gave a TGI (RPMI-8226 leukemia) of 46.8 µM, a TGI (KM20L2 colon) of 22.7 µM and a TGI (SK-MEL-2 melanoma) of 32.1 µM. It also gave a TGI (HOP-18 NSCLC) of 32.7 µM, a TGI (M19-MEL melanoma) of 49.2 µM and a TGI (U251 CNS) of 24.3 µM. For the same molecule, the TGI (LOX IMVI melanoma) was 22.4 µM, the TGI (SNB-75 CNS) was 21.8 µM and the TGI (SW-620 colon) was 25.5 µM. The TGI (A549 NSCLC) was 32.8 µM, the TGI (COLO 205 colon) was 49.5 µM and the TGI (SK-MEL-28 melanoma) was 30.8 µM. It also gave a TGI (UO-31 renal) of 21.2 µM, a TGI (NCI-H460 lung) of 27.7 µM and a TGI (SF-539 CNS) of 22.8 µM. The TGI (NCI-H23 lung) was 24.2 µM, the TGI (786-0 renal) was 25.2 µM and the TGI (OVCAR-8 ovarian) was 27.8 µM. For the same molecule, the TGI (HT29 colon) was 19.4 µM, the TGI (HL-60(TB) leukemia) was 34.6 µM and the TGI (RXF-631 renal) was 32 µM. For the same molecule, the TGI (MOLT-4 leukemia) was 25.5 µM, the TGI (MALME-3M melanoma) was 39.6 µM and the TGI (UACC-257 melanoma) was 29.7 µM. The TGI (DMS 114 small cell lung) was 40.5 µM, the TGI (UACC-62 melanoma) was 32.1 µM and the TGI (NCI-H226 lung) was 26.2 µM. For the same molecule, the TGI (A498 renal) was 28.3 µM, the TGI (ACHN renal) was 23.6 µM and the TGI (CAKI-1 renal) was 19.8 µM. It also gave a TGI (SF-295 CNS) of 24.2 µM, a TGI (HCT-15 colon) of 21.4 µM and a TGI (SF-268 CNS) of 23.7 µM. It also gave a TGI (OVCAR-5 ovarian) of 35 µM, a TGI (OVCAR-3 ovarian) of 22.4 µM and a TGI (OVCAR-4 ovarian) of 27.1 µM. It also gave a TGI (SNB-19 CNS) of 31.9 µM, a TGI (KM12 colon) of 25.7 µM and a TGI (M14 melanoma) of 3.56 µM. The TGI (HOP-92 NSCLC) was 20.1 µM, the TGI (LXFL 529 NSCLC) was 28.2 µM and the TGI (IGROV1 ovarian) was 33 µM. It also gave a TGI (CCRF-CEM leukemia) of 37 µM, a TGI (HCT-116 colon) of 20.9 µM and a TGI (RXF 393 renal) of 18.3 µM. The TGI (XF 498 CNS) was 24 µM, the TGI (DMS 273 small cell lung) was 43.2 µM and the TGI (K-562 leukemia) was 19.1 µM.
In the case of `CCC1CCC2CCCC(C)N12` (stereo unspecified), the TGI (HCC-2998 colon) was > 100 µM, the TGI (SR leukemia) was > 100 µM and the TGI (SN12C renal) was > 100 µM. The TGI (RPMI-8226 leukemia) was > 100 µM, the TGI (KM20L2 colon) was > 100 µM and the TGI (SK-MEL-2 melanoma) was > 100 µM. The TGI (HOP-18 NSCLC) was > 100 µM, the TGI (M19-MEL melanoma) was > 100 µM and the TGI (U251 CNS) was > 100 µM. The TGI (HOP-62 NSCLC) was > 100 µM, the TGI (SNB-75 CNS) was > 100 µM and the TGI (SW-620 colon) was > 100 µM. The TGI (A549 NSCLC) was > 100 µM, the TGI (COLO 205 colon) was > 100 µM and the TGI (TK-10 renal) was > 100 µM. For the same molecule, the TGI (SK-MEL-28 melanoma) was > 100 µM, the TGI (UO-31 renal) was > 100 µM and the TGI (SF-539 CNS) was > 100 µM. For the same molecule, the TGI (NCI-H23 lung) was > 100 µM, the TGI (786-0 renal) was > 100 µM and the TGI (OVCAR-8 ovarian) was > 100 µM. For the same molecule, the TGI (EKVX NSCLC) was > 100 µM, the TGI (HL-60(TB) leukemia) was > 100 µM and the TGI (RXF-631 renal) was > 100 µM. The TGI (MOLT-4 leukemia) was > 100 µM, the TGI (MALME-3M melanoma) was > 100 µM and the TGI (UACC-257 melanoma) was > 100 µM. For the same molecule, the TGI (DMS 114 small cell lung) was > 100 µM, the TGI (UACC-62 melanoma) was > 100 µM and the TGI (NCI-H522 lung) was > 100 µM. The TGI (NCI-H226 lung) was > 100 µM, the TGI (ACHN renal) was > 100 µM and the TGI (CAKI-1 renal) was > 100 µM. The TGI (SF-295 CNS) was > 100 µM, the TGI (HCT-15 colon) was > 100 µM and the TGI (SF-268 CNS) was > 100 µM. The TGI (OVCAR-3 ovarian) was > 100 µM, the TGI (OVCAR-4 ovarian) was > 100 µM and the TGI (SNB-19 CNS) was > 100 µM. The TGI (KM12 colon) was > 100 µM, the TGI (M14 melanoma) was > 100 µM and the TGI (HOP-92 NSCLC) was > 100 µM. The TGI (LXFL 529 NSCLC) was > 100 µM, the TGI (IGROV1 ovarian) was > 100 µM and the TGI (CCRF-CEM leukemia) was > 100 µM. For the same molecule, the TGI (HCT-116 colon) was > 100 µM, the TGI (DLD-1 colon) was > 100 µM and the TGI (XF 498 CNS) was > 100 µM. The TGI (DMS 273 small cell lung) was > 100 µM and the TGI (K-562 leukemia) was > 100 µM.
